Source: paper PMC9653409, “Generative deep learning enables the discovery of a potent and selective RIPK1 inhibitor” (Nature Communications, 2022)

Experiments:
RIPK1 [1] = target: T1, RIPK1 (Homo sapiens, UniProt Q13546); conditions: cited from earlier work
T1 sequence (Q13546 1-671): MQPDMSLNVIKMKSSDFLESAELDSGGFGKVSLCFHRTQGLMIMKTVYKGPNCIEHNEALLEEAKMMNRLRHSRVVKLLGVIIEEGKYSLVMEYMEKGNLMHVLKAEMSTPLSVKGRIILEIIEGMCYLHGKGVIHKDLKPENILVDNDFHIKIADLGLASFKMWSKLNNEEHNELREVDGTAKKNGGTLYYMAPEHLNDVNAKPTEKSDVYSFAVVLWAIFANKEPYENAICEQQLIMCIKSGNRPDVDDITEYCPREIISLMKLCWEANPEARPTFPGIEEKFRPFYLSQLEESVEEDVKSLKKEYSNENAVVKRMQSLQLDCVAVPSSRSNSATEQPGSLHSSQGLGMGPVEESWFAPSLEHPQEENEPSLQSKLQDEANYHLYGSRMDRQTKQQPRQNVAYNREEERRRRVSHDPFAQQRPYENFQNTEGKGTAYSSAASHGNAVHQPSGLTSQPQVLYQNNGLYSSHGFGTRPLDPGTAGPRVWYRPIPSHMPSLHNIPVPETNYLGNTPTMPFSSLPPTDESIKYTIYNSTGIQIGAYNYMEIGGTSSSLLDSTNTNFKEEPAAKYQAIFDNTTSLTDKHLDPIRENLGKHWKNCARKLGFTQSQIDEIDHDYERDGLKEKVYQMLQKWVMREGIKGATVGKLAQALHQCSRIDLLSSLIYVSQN

RIPK1 [2] = target: T1, RIPK1; test: RIPK1 kinase assay, 33P-labeled ATP assay at Eurofins; format: biochemical; conditions: read-out: RIPK1 IC50
Procedure: In vitro kinase activity assays were conducted through the Kinase Profiling Services provided by Eurofins (Eurofins, France). The protocol for the RIPK1 assay is briefly described as follows (Protocols for other kinases are very similar and can be found in http://www.eurofins.com/pharmadiscovery). RIPK1 kinase was incubated with the test compound in assay buffer containing 8 mM MOPS (pH 7.0), 0.2 mM EDTA, 250 μM […], 10 mM magnesium acetate, and 10 μM [γ-33P]-ATP for 15 min at room temperature. The reaction was initiated by the addition of the Mg/ATP mixture. After incubation for 40 min at room temperature, and the reaction was stopped by the addition of 3% phosphoric acid. A 10 μL portion of the reaction mixture was then spotted onto a P30 filter mat and washed four times for 4 min in 0.425% phosphoric acid and once in methanol prior to drying and scintillation counting.

[3] = Cytotoxicity at high concentration; format: cell-based; conditions: 3-10 μM
HT29 cells = test: TSZ-induced HT29 cell necroptosis model (CCK8); format: cell-based; conditions: Homo sapiens, HT-29; TSZ-induced necroptosis; read-out: HT29 EC50
Procedure: Cell necroptosis protection assays were performed in 96-well cell culture plates. Cells were plated in each well and cultured at 37 °C overnight. […] The cell survival rate was determined using a CCK8 cell viability assay kit and CLARIOstar (v5.61). […] All experiments were performed at least two times, and each EC50 value was expressed as mean ± standard deviation (SD).

Structure (SMILES)	IC50 (RIPK1 [2]) [µM]	potency against RIPK1 (RIPK1 [1]) [µM]	cytotoxicity [3]	EC50 (HT29 cells) [µM]
CN1C(=O)NC(Cc2c[nH]c3c(Cl)cccc23)C1=O (centres unmarked) [Nec-1a]	–	0.317	–	–
CC(NC(=O)c1cn(C)c2ccc(-c3ccn4nc(NC(=O)C5CC5)cc4n3)cc12)c1ccccc1 (centres unmarked) [RI-056]	0.065	–	some cytotoxicity at high concentration (3-10 μM)	0.049
CNC(=O)c1n[nH]c2cc(-c3ccc(C(=O)NCc4ccc(OCCC5CC5)cc4)nc3)ccc12 [RI-413]	> 10	–	–	> 30
CC(NCC(=O)Nc1cccc(-c2cc(C(=O)NCc3cccc(F)c3)n(C)c2)n1)c1ccccc1F (centres unmarked) [RI-470, N-(3-fluorobenzyl)-4-(6-(2-((1-(2-fluorophenyl)ethyl)amino)acetamido)pyridin-2-yl)-1-methyl-1H-pyrrole-2-carboxamide]	> 10	–	–	> 100

Continued, in another order:

IC50 (RIPK1 [2]) [µM]	Structure (SMILES)	potency against RIPK1 (RIPK1 [1]) [µM]	cytotoxicity [3]	EC50 (HT29 cells) [µM]
> 10	Cc1cc(Oc2ccc(F)c(C(=O)NCc3ccc(F)cc3)n2)cc(C(=O)NCc2ccc(Br)s2)c1 [RI-539]	–	–	> 30
0.463	CCOc1ccccc1CNCC(=O)c1cn2ccc(-c3ccn4nc(NC(=O)C(C)C)nc4c3)cc2n1 [RI-753, N-(7-(2-((2-ethoxybenzyl)glycyl)imidazo[1,2-a]pyridin-7-yl)-[1,2,4]triazolo[1,5-a]pyridin-2-yl)isobutyramide]	–	–	0.064
> 10	CC(=O)Nc1cn2cc(-c3ccc(CNC(=O)c4cc(F)ccc4OCC4CCCC4)nc3)ccc2n1 [RI-985]	–	–	> 30
0.049	CC(NC(=O)c1cn(C)c2ccc(-c3ccn4nc(NC(=O)C5CC5)cc4n3)cc12)c1ccc(F)cc1 (centres unmarked) [RI-1155]	–	some cytotoxicity at high concentration (3-10 μM)	0.04
